Laboratory results published in patent US6685968B1, “Boric acid sapstain control method” (priority 2003, dated 2004).

Tested on: sapstain
Conditions: fresh cut hackberry lumber dipped in aqueous solutions (1,3,5,7 and 10% boric acid; DOT at the same level of boric oxide); stacked for air drying; examined after six months of seasoning and planing
Experimental: Aqueous solutions containing 1,3,5,7, and 10% boric acid according to my preferred embodiment were prepared and used to treat fresh cut hackberry lumber by dipping. Aqueous disodium octaborate tetrahydrate solutions containing the same level of boric oxide were prepared and used in the same manner. This treated lumber, and untreated controls, was stacked in accordance with standard sawmill air drying practice. After six months of seasoning the lumber was planed, and examined for sapstain control.

In the case of `O.O.O.O.O=BOB1OB(OB=O)OB2OB([O-])OB([O-])OB(O1)O2.[Na+].[Na+]` [DOT, disodium octaborate tetrahydrate], the sapstain control is reported as “superior to the untreated controls”.

`OB(O)O` [boric acid] was tested, and the sapstain control was “superior sapstain control compared to the DOT concentrations”.
